Assay results as given in patent US12448400B2, “KRAS G12D modulating compounds” (priority 2023, dated 2025).

Key:
[1] = Mouse oral cassette pharmacokinetics; format: in vivo, male CD-1 mice; conditions: male, CD-1, mouse, in vivo, po, 30 mg/kg
In short: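 Male CD-1 mice (n=4) dosed orally by gavage at 30 mg-eq./kg per compound as cassettes of 1–3 compounds in 10 w/v % Captisol/50 mM citrate. Plasma sampled 0.5–24 h post dose, analysed by LC-MS/MS; Cmax and AUClast from non-compartmental analysis.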

[2] = Dog oral pharmacokinetics; parameters: species or system Male Beagle dogs; conditions: male, Beagle, in vivo, 10 mg/kg
Procedure: Dog Oral Pharmacokinetics
(§1) Test compounds were formulated in solution formulations (10% w/v % Sulfobutylether-p-cyclodextrin; 90% w/v % 50 mM Citrate Buffer) and administered orally at 5 or 10 mg-eq./kg to a group of three Male Beagle dogs. The animals were fasted overnight prior to dose administration and up to four hours after dosing. The test articles were administrated by oral gavage at a dose volume of 5 ml/kg.
(§2) Blood samples were collected into K2EDTA tubes at predose and 0.25, 0.5, 1, 2, 4, 6, 8, 12, 24 hours post dose, and once daily collection post 24 hours up to 168 hours. Whole blood were stored on wet ice and processed to plasma by centrifugation (3500 rpm for 10 minutes at 5° C.) within 1 hour of collection. Plasma samples were placed in Micronic 96 well tubes and stored at −80° C. until transferred. Plasma concentration of the test compounds was determined by LC-MS/MS. Pharmacokinetic parameters were estimated using non-compartment model analysis. The maximum observed concentration (Cmax) and area under the curve from time of dosing to last measured concentration (AUClast) were calculated and reported.

[3] = Rat oral pharmacokinetics; parameters: species or system Male Sprague Dawley rats; conditions: male, Sprague Dawley, in vivo
Procedure: Rat Oral Pharmacokinetics
as §1, with “(10” for “(10%”, “orally” for “orally at 5 or 10 mg-eq./kg”, “Sprague Dawley rats.” for “Beagle dogs.”, “mL-eq/kg.” for “ml/kg.”
as §2, with “collected” for “collected into K2EDTA tubes”, “12, 24, 48 and 72” for “12, 24”, “post dose into K2EDTA tubes” for “post dose,”, “and” for “and once daily collection post 24 hours up to 168 hours. Whole blood were”, “ice until processed. Whole blood was” for “ice and”, “within 30 minutes” for “within 1 hour”

GP2D (KRAS G12D) cells = assay: 2D cell viability assay (CellTiter-Glo); format: cell-based; conditions: 96 h; GP2D cells, 4 days, CellTiter-Glo luminescence; read-out: G12D 2D EC50
In short: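 Viability was read by CellTiter-Glo after 4 days at 37 °C of 2D culture of KRAS G12D GP2D cells (1000/well, RPMI, 10% FBS) on pre-spotted threefold compound dilutions. EC50 was fitted with a sigmoidal dose-response model as the point of half-maximal luminescence loss.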

Compound | Dog Parent % F [2] [%] | Dog Parent AUC [2] [µM·h] | Mouse Parent AUC (nM * h) [1] | EC50 (GP2D (KRAS G12D) cells) [nM] | Rat Parent % F ([3]; 7.5 mg/kg) [%] | Rat Parent AUC ([3]; 7.5 mg/kg) [µM·h] | other results
C#Cc1c(F)ccc2cc(O)cc(-c3nc4c5c(nc(OC[C@@]67CCCN6C[C@H](F)C7)nc5c3F)N3C[C@H]5CC[C@H](N5)[C@H]3CCC4)c12 [Comp. Ex. 75, reference compound] | 0.6 | 0.071 |  |  |  |  | Mouse Parent AUC [1]: 0.051 µM·h
C#Cc1c(F)ccc2cccc(-c3nc4c5c(nc(OC[C@@]67CCCN6C[C@H](F)C7)nc5c3F)N3C[C@H]5CC[C@H](N5)[C@H]3CCC4)c12 [Comp. Ex. 76, (6aR,7S,10R)-2-(8-ethynyl-7-fluoronaphthalen-1-yl)-1-fluoro-13-(((2R,7aS)-2-fluorotetrahydro-1H-pyrrolizin-7a(5H)-yl)methoxy)-5,6,6a,7,8,9,10,11-octahydro-4H-3,11a,12,14,15-pentaaza-7,10-methanocyclohepta[4,5]cycloocta[1,2,3-de]naphthalene, reference compound] |  |  | 1,400 nM * h |  |  |  | Rat Parent % F ([3]; 5 mg/kg): 2%; Rat Parent AUC ([3]; 5 mg/kg): 0.059 µM·h
Cc1oc(=O)oc1CN1[C@@H]2CC[C@H]1[C@H]1CCCc3nc(-c4cc(O)cc5ccc(F)c(OC(F)(F)F)c45)c(F)c4nc(OC[C@@]56CCCN5C[C@H](F)C6)nc(c34)N1C2 [Example 18, 4-(((6aR,7S,10R)-1-fluoro-2-(7-fluoro-3-hydroxy-8-(trifluoromethoxy)naphthalen-1-yl)-13-(((2R,7aS)-2-fluorotetrahydro-1H-pyrrolizin-7a(5H)-yl)methoxy)-5,6,6a,7,8,9,10,11-octahydro-4H-3,11a,12,14,15-pentaaza-7,10-methanocyclohepta[4,5]cycloocta[1,2,3-de]naphthalen-15-yl)methyl)-5-methyl-1,3-dioxol-2-one] | 12 | 0.6 |  |  |  |  | 
C#Cc1c(F)ccc2cc(N)cc(-c3nc4c5c(nc(OC[C@@]67CCCN6C[C@H](F)C7)nc5c3F)N3C[C@H]5CC[C@@H]([C@H]3CCC4)N5Cc3oc(=O)oc3C)c12 [Example 33, 4-(((6aR,7S,10R)-2-(3-amino-8-ethynyl-7-fluoronaphthalen-1-yl)-1-fluoro-13-(((2R,7aS)-2-fluorotetrahydro-1H-pyrrolizin-7a(5H)-yl)methoxy)-5,6,6a,7,8,9,10,11-octahydro-4H-3,11a,12,14,15-pentaaza-7,10-methanocyclohepta[4,5]cycloocta[1,2,3-de]naphthalen-15-yl)methyl)-5-methyl-1,3-dioxol-2-one] | 11 |  | 1,500 nM * h | 0.71 |  |  | Dog Parent AUC (nM * h) [2]: 2,200 nM * h; Rat Parent % F ([3]; 15 mg/kg): 3.3%; Rat Parent AUC ([3]; 15 mg/kg): 0.18 µM·h
C#Cc1c(F)ccc2cc(N)cc(-c3nc4c5c(nc(OC[C@@]67CCCN6C[C@H](F)C7)nc5c3F)N3C[C@H]5CC[C@@H]([C@H]3CCC4)N5Cc3oc(=O)oc3C(C)C)c12 [Example 80, 4-(((6aR,7S,10R)-2-(3-amino-8-ethynyl-7-fluoronaphthalen-1-yl)-1-fluoro-13-(((2R,7aS)-2-fluorotetrahydro-1H-pyrrolizin-7a(5H)-yl)methoxy)-5,6,6a,7,8,9,10,11-octahydro-4H-3,11a,12,14,15-pentaaza-7,10-methanocyclohepta[4,5]cycloocta[1,2,3-de]naphthalen-15-yl)methyl)-5-isopropyl-1,3-dioxol-2-one] |  |  |  | 0.37 | 2.1 | 0.057 | 
C#Cc1c(F)ccc2cc(N)cc(-c3nc4c5c(nc(OC[C@@]67CCCN6C[C@H](F)C7)nc5c3F)N3C[C@H]5CC[C@@H]([C@H]3CCC4)N5Cc3oc(=O)oc3C(C)(C)C)c12 [Example 81, 4-(((6aR,7S,10R)-2-(3-amino-8-ethynyl-7-fluoronaphthalen-1-yl)-1-fluoro-13-(((2R,7aS)-2-fluorotetrahydro-1H-pyrrolizin-7a(5H)-yl)methoxy)-5,6,6a,7,8,9,10,11-octahydro-4H-3,11a,12,14,15-pentaaza-7,10-methanocyclohepta[4,5]cycloocta[1,2,3-de]naphthalen-15-yl)methyl)-5-(tert-butyl)-1,3-dioxol-2-one] |  |  |  | 0.63 | 0.4 | 0.011 | 
